Experimental findings from PubChem BioAssay (NCI) are described below.

Some test systems named below: HS 578T breast; 786-0 renal; A498 renal; SF-268 CNS; MCF7 breast; SR leukemia; LOX IMVI melanoma; MDA-N; MDA-MB-435; COLO 205 colon; EKVX NSCLC.
Holding throughout (test): growth of human tumour cells (NCI), 48 h

Each structure is given as a SMILES string.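 The compound was tested at five concentrations on cells cultured in 96-well plates, with a 48-hour exposure period. TGI denotes the concentration required for complete inhibition of growth.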 Where only a bound is given, the exact number is not on record here.

As to `Cc1c(C#N)c(N)n(C2OCC(O)C(O)C2O)c(=S)c1C#N` (centres undefined), the TGI with HS 578T breast, in the test with 786-0 renal, in the test on A498 renal, in the test with SF-268 CNS, in the test with MCF7 breast and in the test with SR leukemia was above 100 µM in each case. Besides, the TGI in the test with LOX IMVI melanoma, in the test on MDA-N and in the test on MDA-MB-435 was above 100 µM throughout.

`COP(=O)(OC)C12CCOCCN1c1ccccc1C2=O` (centres undefined): the TGI in the test with HS 578T breast, in the test with 786-0 renal, with COLO 205 colon, with A498 renal, in the test on SF-268 CNS and in the test on MCF7 breast was above 100 µM throughout. The TGI with MDA-N, in the test with EKVX NSCLC and in the test with MDA-MB-435 was above 100 µM throughout.

In the case of `CCOC(=O)C1CN(C2CC2)CCC1=O` (centres undefined), the TGI with HS 578T breast, in the test with 786-0 renal, in the test with COLO 205 colon, in the test on SF-268 CNS, in the test with MCF7 breast and in the test on SR leukemia was above 100 µM throughout. In addition, the TGI with LOX IMVI melanoma, in the test with MDA-N, with EKVX NSCLC and in the test on MDA-MB-435 was above 100 µM each time.

Consider `O=C(O)CC(NC(=O)/C(=C/c1ccccc1O)NC(=O)c1ccccc1)C(=O)O` (centres undefined), for which the TGI in the test on 786-0 renal, in the test on COLO 205 colon, in the test with A498 renal, with MCF7 breast, with SR leukemia and in the test on LOX IMVI melanoma was above 100 µM in each case. The TGI in the test on MDA-N, in the test on EKVX NSCLC and in the test with MDA-MB-435 was above 100 µM in each case.

Consider `Cc1cc(/N=C/c2ccc(C#N)cc2)n(-c2ccccc2)n1`, for which the TGI in the test with HS 578T breast, with 786-0 renal, with COLO 205 colon, in the test on SF-268 CNS, in the test on MCF7 breast and with SR leukemia was above 100 µM each time. Moreover, the TGI with LOX IMVI melanoma, in the test with MDA-N, with EKVX NSCLC and in the test with MDA-MB-435 was above 100 µM throughout.

In the case of `CC(C)(C)OC(=O)C1C(=O)NC(=O)CC1C(COCc1ccccc1)OCc1ccccc1` (centres undefined), the TGI in the test on HS 578T breast turned out to be 49.5 µM; with 786-0 renal it was 45.3 µM; in the test on SF-268 CNS, 59.3 µM; in the test with MCF7 breast it was 57.7 µM; with SR leukemia, 64.1 µM; in the test with LOX IMVI melanoma, 34.7 µM. For the same molecule, the TGI in the test on MDA-N is 36.2 µM; with EKVX NSCLC it was 55.5 µM; with MDA-MB-435, 49.7 µM.

`CC1(C)[C@@H](Cn2cnc3c(Cl)nc(N)nc32)CC[C@@]1(C)CO`: the TGI in the test on HS 578T breast is 44.9 µM; with 786-0 renal, above 100 µM; in the test on COLO 205 colon it was above 100 µM; in the test with A498 renal, above 100 µM; with SF-268 CNS, 43.3 µM; in the test with MCF7 breast, above 100 µM. Moreover, the TGI with LOX IMVI melanoma is 80.9 µM; in the test with MDA-N it was 91.7 µM; in the test on EKVX NSCLC, above 100 µM; with MDA-MB-435, 64.2 µM.

Turning to `COC(=O)C1OC(O[C@H]2CC[C@]3(C)[C@H]4CC=C5[C@@H]6CC(C)(C)CC[C@]6(C(=O)OC6OCC(O)C(O)C6OC6OC(C)C(OC7OCC(OC8OCC(O)C(O)C8O)C(O)C7O)C(O)C6O)[C@H](O)C[C@@]5(C)[C@]4(C)CC[C@H]3C2(C)C)C(O)C(O)C1O` (some centres undefined), the TGI in the test with HS 578T breast was 13 µM; in the test on 786-0 renal, 20.2 µM; in the test with COLO 205 colon, 3.09 µM; in the test on A498 renal, 3.94 µM; with SF-268 CNS it was 13.9 µM; with MCF7 breast, 6.63 µM. The TGI turned out to be 22 µM in the test with LOX IMVI melanoma, 3.44 µM in the test on MDA-N, 5.86 µM in the test on EKVX NSCLC and 3.58 µM with MDA-MB-435.

Turning to `COc1cc(C=C2C(=O)NC(=S)NC2=O)cc(OC)c1OC`, the TGI in the test with HS 578T breast, in the test on 786-0 renal, with COLO 205 colon, in the test on SF-268 CNS, in the test on MCF7 breast and in the test with LOX IMVI melanoma was above 100 µM throughout. Moreover, the TGI in the test on MDA-N, in the test with EKVX NSCLC and in the test on MDA-MB-435 was above 100 µM each time.

Take `O=C(c1ccccc1)N1C(=S)N=C(Nc2ccccc2)C1=Nc1ccccc1`: the TGI in the test with HS 578T breast, in the test with 786-0 renal, in the test on COLO 205 colon, with A498 renal, in the test on SF-268 CNS and in the test with SR leukemia was above 100 µM in each case. Also, the TGI in the test with LOX IMVI melanoma, in the test on MDA-N, in the test on EKVX NSCLC and in the test on MDA-MB-435 was above 100 µM each time.

For `Cc1ccc(S(=O)(=O)NC(=O)NNc2ccc(F)cc2)cc1`, the TGI in the test with HS 578T breast, in the test on 786-0 renal, in the test on COLO 205 colon, in the test with A498 renal, in the test on SF-268 CNS and in the test with MCF7 breast was above 100 µM each time. For the same molecule, the TGI in the test on LOX IMVI melanoma, in the test on MDA-N, in the test on EKVX NSCLC and with MDA-MB-435 was above 100 µM in each case.

As to `Cc1ccc(-c2c(C#N)c(-c3ccc([N+](=O)[O-])cc3)c(C#N)c(=O)n2NS(=O)(=O)c2ccccc2)cc1`, the TGI in the test on HS 578T breast was 33.1 µM; in the test with 786-0 renal it was above 100 µM; in the test on COLO 205 colon it was above 100 µM; in the test on A498 renal, above 100 µM; in the test with SF-268 CNS it was above 100 µM; with MCF7 breast, 54.1 µM. Besides, the TGI in the test on LOX IMVI melanoma was 83 µM; in the test with MDA-N, above 100 µM; with EKVX NSCLC it was above 100 µM; in the test with MDA-MB-435 it was above 100 µM.

As for `C[C@]1(S(=O)(=O)c2ccccc2)C[C@H]2N(Cc3ccccc3)[C@@H]1CCC21OCCO1`, the TGI in the test with HS 578T breast, in the test with 786-0 renal, in the test with COLO 205 colon, in the test on SF-268 CNS, in the test with MCF7 breast and with LOX IMVI melanoma was above 100 µM in each case. The TGI with MDA-N, in the test with EKVX NSCLC and in the test on MDA-MB-435 was above 100 µM throughout.
